ChEMBL document CHEMBL1145372, “(Phenylpiperidinyl)cyclohexylsulfonamides: development of alpha1a/1d-selective adrenergic receptor antagonists for the treatment of benign prostatic hyperplasia/lower urinary tract symptoms (BPH/LUTS)” (Bioorg Med Chem Lett, 2007)

Key:
[1] = target: T1, Alpha-1D adrenergic receptor (Homo sapiens, UniProt P25100); test: Binding affinity to human cloned adrenergic alpha-1d receptor
T1 sequence (P25100 whole entry): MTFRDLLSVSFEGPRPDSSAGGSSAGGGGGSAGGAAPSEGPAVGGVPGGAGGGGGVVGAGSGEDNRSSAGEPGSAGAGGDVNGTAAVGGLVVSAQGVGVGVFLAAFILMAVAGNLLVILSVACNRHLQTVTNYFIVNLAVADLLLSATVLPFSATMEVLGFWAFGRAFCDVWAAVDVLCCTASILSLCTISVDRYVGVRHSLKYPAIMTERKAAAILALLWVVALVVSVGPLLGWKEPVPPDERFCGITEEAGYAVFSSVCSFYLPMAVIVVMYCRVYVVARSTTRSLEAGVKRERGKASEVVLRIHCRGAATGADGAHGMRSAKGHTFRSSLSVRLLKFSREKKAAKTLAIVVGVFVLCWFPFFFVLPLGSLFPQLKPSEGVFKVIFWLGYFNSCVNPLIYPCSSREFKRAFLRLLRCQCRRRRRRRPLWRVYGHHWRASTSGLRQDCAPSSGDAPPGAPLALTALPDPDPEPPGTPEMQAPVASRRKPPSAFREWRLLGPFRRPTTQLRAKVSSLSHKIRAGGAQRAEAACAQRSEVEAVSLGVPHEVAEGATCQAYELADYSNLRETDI

[2] = target: T2, Alpha-1A adrenergic receptor (Homo sapiens, UniProt P35348); test: Binding affinity to human cloned adrenergic alpha-1a receptor
T2 sequence (P35348 whole entry): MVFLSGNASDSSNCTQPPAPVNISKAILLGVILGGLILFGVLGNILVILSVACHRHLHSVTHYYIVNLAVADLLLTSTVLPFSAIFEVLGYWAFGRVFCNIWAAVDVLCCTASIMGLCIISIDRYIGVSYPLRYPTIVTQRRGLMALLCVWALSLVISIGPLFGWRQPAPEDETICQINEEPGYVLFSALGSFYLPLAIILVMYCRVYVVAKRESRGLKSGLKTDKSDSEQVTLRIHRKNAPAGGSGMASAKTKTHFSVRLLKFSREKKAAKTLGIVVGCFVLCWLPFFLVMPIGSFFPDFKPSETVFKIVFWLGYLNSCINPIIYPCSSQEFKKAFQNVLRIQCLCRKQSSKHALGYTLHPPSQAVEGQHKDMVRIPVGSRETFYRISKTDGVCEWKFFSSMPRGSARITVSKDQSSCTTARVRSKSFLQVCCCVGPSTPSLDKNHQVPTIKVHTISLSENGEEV

D(2) dopamine receptor = D(2) dopamine receptor (Homo sapiens, UniProt P14416); test: Binding affinity for dopamine D2 receptor
[3] = target: T3, Alpha-1B adrenergic receptor (Homo sapiens, UniProt P35368); test: Binding affinity to human cloned adrenergic alpha-1b receptor
T3 sequence (P35368 whole entry): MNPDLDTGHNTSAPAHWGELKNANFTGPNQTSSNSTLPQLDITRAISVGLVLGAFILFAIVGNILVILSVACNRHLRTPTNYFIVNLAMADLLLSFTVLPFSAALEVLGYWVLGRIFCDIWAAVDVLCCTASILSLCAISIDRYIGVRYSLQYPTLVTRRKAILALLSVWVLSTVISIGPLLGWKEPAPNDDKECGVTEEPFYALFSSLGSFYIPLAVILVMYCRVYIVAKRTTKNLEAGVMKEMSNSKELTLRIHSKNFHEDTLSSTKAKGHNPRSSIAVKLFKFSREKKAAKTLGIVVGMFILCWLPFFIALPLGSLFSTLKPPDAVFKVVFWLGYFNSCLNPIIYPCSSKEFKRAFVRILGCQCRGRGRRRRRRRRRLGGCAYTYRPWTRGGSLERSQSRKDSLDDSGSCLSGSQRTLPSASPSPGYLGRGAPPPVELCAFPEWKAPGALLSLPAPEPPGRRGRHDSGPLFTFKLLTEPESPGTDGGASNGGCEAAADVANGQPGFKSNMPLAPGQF

D(2) dopamine receptor, sequence (P14416 whole entry): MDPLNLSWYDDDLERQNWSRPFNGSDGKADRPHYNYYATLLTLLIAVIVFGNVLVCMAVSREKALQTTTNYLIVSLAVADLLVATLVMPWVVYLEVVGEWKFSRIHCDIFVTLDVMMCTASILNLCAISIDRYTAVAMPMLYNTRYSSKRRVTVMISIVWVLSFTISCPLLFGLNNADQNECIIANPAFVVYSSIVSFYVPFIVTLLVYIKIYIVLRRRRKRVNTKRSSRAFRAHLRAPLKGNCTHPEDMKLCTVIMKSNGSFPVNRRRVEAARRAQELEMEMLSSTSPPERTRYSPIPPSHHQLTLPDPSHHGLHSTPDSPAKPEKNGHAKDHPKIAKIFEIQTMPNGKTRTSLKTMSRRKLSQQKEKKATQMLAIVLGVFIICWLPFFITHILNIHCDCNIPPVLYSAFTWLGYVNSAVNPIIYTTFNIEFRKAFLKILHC

SMILES	Ki [2] [nM]	Ki (D(2) dopamine receptor) [nM]	Ki [1] [nM]	Ki [3] [nM]
COc1ccc(S(=O)(=O)N[C@H]2CC[C@H](N3CCC(c4ccccc4OC4CC4)CC3)CC2)cc1OC	11	133	34	–
COc1ccc(Cl)cc1S(=O)(=O)N[C@H]1CC[C@H](N2CCC(c3ccccc3OC3CC3)CC2)CC1	–	154	–	–
O=S(=O)(N[C@H]1CC[C@@H](N2CCC(c3ccccc3OC3CC3)CC2)CC1)c1cc(Cl)ccc1F	–	187	–	–
O=S(=O)(N[C@H]1CC[C@H](N2CCC(c3ccccc3OC3CC3)CC2)CC1)c1cc(Cl)ccc1F	–	159	–	–
O=S(=O)(N[C@H]1CC[C@H](N2CCC(c3ccccc3OCC(F)(F)F)CC2)CC1)c1ccc2c(c1)OCCO2	–	23	–	91
COc1ccc(S(=O)(=O)N[C@H]2CC[C@H](N3CCC(c4ccccc4OCCF)CC3)CC2)cc1OC	–	284	–	–
COc1ccc(S(=O)(=O)N[C@H]2CC[C@H](N3CCC(c4ccccc4OCC(F)F)CC3)CC2)cc1OC	31	88	–	–
COc1ccc(S(=O)(=O)N[C@H]2CC[C@@H](N3CCC(c4ccc(F)cc4OC(C)C)CC3)CC2)cc1OC	–	106	12	–
COc1ccc(S(=O)(=O)N[C@H]2CC[C@H](N3CCC(c4ccc(F)cc4OC(C)C)CC3)CC2)cc1OC	–	104	–	–
COc1ccc(S(=O)(=O)N[C@H]2CC[C@@H](N3CCC(c4cc(F)ccc4OC(C)C)CC3)CC2)cc1OC	–	178	–	–
CC(C)Oc1ccccc1C1CCN([C@H]2CC[C@H](NS(=O)(=O)c3ccc(F)c(F)c3)CC2)CC1	1.4	79	87	1380
COc1ccc(S(=O)(=O)N[C@H]2CC[C@@H](N3CCC(c4ccccc4OC4CC4)CC3)CC2)cc1OC	–	144	–	–
COc1ccc(S(=O)(=O)N[C@H]2CC[C@H](N3CCC(c4ccccc4OC(C)C)CC3)CC2)cc1OC	–	55	–	–
COc1ccc(Cl)cc1S(=O)(=O)N[C@H]1CC[C@@H](N2CCC(c3ccccc3OC3CC3)CC2)CC1	–	129	–	–
COc1ccc(S(=O)(=O)N[C@H]2CC[C@@H](N3CCC(c4ccccc4OC(C)C)CC3)CC2)cc1OC	2.2	144	0.77	–
COc1ccc(S(=O)(=O)N[C@H]2CC[C@H](N3CCC(c4cc(F)ccc4OC(C)C)CC3)CC2)cc1OC	–	94	–	–
COc1ccc(Cl)cc1S(=O)(=O)N[C@H]1CC[C@@H](N2CCC(c3ccccc3OCC(F)(F)F)CC2)CC1	–	69	1.6	–
COc1ccc(S(=O)(=O)N[C@H]2CC[C@@H](N3CCC(c4ccccc4OCCF)CC3)CC2)cc1OC	8.5	201	5.5	401

Now from value to molecule, other results behind:

Ki [2] [nM]	Ki (D(2) dopamine receptor) [nM]	SMILES	Ki [1] [nM]	Ki [3] [nM]
–	71	O=S(=O)(N[C@H]1CC[C@H](N2CCC(c3ccccc3OC3CC3)CC2)CC1)c1ccc2c(c1)OCO2	–	–
1.8	111	COc1ccc(S(=O)(=O)N[C@H]2CC[C@@H](N3CCC(c4ccccc4OCC(F)(F)F)CC3)CC2)cc1OC	2.2	123
21	83	COc1ccc(S(=O)(=O)N[C@H]2CC[C@H](N3CCC(c4ccccc4OCC(F)(F)F)CC3)CC2)cc1OC	23	368
5.9	78	O=S(=O)(N[C@H]1CC[C@@H](N2CCC(c3ccccc3OCC(F)(F)F)CC2)CC1)c1cc(Cl)ccc1F	–	–
4.8	37	O=S(=O)(N[C@H]1CC[C@H](N2CCC(c3ccccc3OCC(F)(F)F)CC2)CC1)c1cc(Cl)ccc1F	–	–
–	85	O=S(=O)(N[C@H]1CC[C@@H](N2CCC(c3ccccc3OCC(F)(F)F)CC2)CC1)c1cccc(OC(F)F)c1	–	–
–	129	O=S(=O)(N[C@H]1CC[C@H](N2CCC(c3ccccc3OCC(F)(F)F)CC2)CC1)c1cccc(OC(F)F)c1	–	–
38	104	O=S(=O)(N[C@H]1CC[C@H](N2CCC(c3ccccc3OCC(F)(F)F)CC2)CC1)c1ccc(OC(F)F)cc1	–	–
–	154	O=S(=O)(N[C@H]1CC[C@@H](N2CCC(c3ccccc3OCC(F)(F)F)CC2)CC1)c1ccc(OC(F)F)cc1	–	–
–	276	COc1ccc(S(=O)(=O)N[C@H]2CC[C@@H](N3CCC(c4ccccc4OCC(F)F)CC3)CC2)cc1OC	–	–
16	66	O=S(=O)(N[C@H]1CC[C@@H](N2CCC(c3ccccc3OC3CC3)CC2)CC1)c1ccc2c(c1)OCO2	–	–
–	79	CC(C)Oc1ccccc1C1CCN([C@H]2CC[C@@H](NS(=O)(=O)c3ccc(F)c(F)c3)CC2)CC1	–	–
10	82	COc1ccc(Cl)cc1S(=O)(=O)N[C@H]1CC[C@H](N2CCC(c3ccccc3OCC(F)(F)F)CC2)CC1	–	–
–	57	O=S(=O)(N[C@H]1CC[C@@H](N2CCC(c3ccccc3OCC(F)(F)F)CC2)CC1)c1ccc2c(c1)OCCO2	–	–
